These results are taken from US11325913B2, “Compounds and methods for the treatment of malaria” (THE BROAD INSTITUTE, INC., priority 2013, dated 2022).

The term EC50 denotes the concentration giving half of the maximal effect.

The test system of the first assay is P. falciparum Dd2. The assay is described as follows: Activity against the Dd2 strain of P. falciparum (SYBR Green I, 72 h). The assay is classed as cell-based. Particulars: P. falciparum Dd2, 72 h incubation. As for the experimental part: The Dd2 strain of P. falciparum was cultured in complete medium (RPMI with L-glutamine, 4.3% heat-inactivated O-positive human serum, 2.08 mg/ml albumax, 0.013 mg/ml hypoxanthine, 1.17 mg/ml glucose, 0.18% NaHCO3, 0.031 M Hepes, 2.60 mM NaOH, and 0.043 mg/ml gentamicin) until the parasitemia reached 3-8%. Parasitemia was determined by checking at least 500 red blood cells from a Giemsa-stained blood smear. The Dd2 cultures along with tested O-positive red blood cells were centrifuged at room temperature at 2,000 rpm for 5 minutes using an Eppendorf centrifuge 5810R with an A-4-81 rotor. The medium was aspirated off. For the compound screening, a parasite dilution at a 1% parasitemia and 1.0% hematocrit was created with screening medium (RPMI with L-glutamine, 4.16 mg/ml albumax II, 0.013 mg/ml hypoxanthine, 1.73 mg/ml glucose, 0.18% NaHCO3, 0.031 M Hepes, 2.60 mM NaOH, and 0.043 mg/ml gentamicin). The suspension was gassed with 93% nitrogen, 4% carbon dioxide, and 3% oxygen and placed at 37° C. until needed. Using a liquid dispenser, 20 μl of screening medium was dispensed into 384-well, black, clear-bottom plates. With a PinTool, 100 nl of compounds dissolved in DMSO was transferred into the assay plates along with control compound (mefloquine). Next, 30 μl of the parasite suspension in screening medium was then dispensed into the assay plates such that the final parasitemia was 1% and the final hematocrit was 1.0%. Final concentration of DMSO was 0.125%. Mefloquine at a final concentration of 20 μM and DMSO at a final concentration of 0.125% were used within the assay plates to serve as background and baseline controls, respectively. The assay plates were transferred to incubators (93% nitrogen, 4% carbon dioxide, and 3% oxygen during the 72 h incubation at 37° C.). Ten microliters of detection reagent consisting of 10×SYBR Green I (Invitrogen; supplied in 10,000× concentration) in lysis buffer (20 mM Tris-HCl, 5 mM EDTA, 0.16% Saponin wt/vol, 1.6% Triton X vol/vol) was dispensed into the assay plates. For optimal staining, the assay plates were left at room temperature for 24 h in the dark. The assay plates were read by using an Envision (PerkinElmer) reader, with 505 dichroic mirrors with 485-nm excitation and 530-nm emission settings, and the plate reads were from the bottom.
By following the above-described protocol, the 50% effective concentration (EC50) for compounds 1-95 was measured against P. falciparum Dd2 and the results are shown in Table 2: […]
Molecule `O=C(Nc1ccc(F)cc1)N1CCCCN2[C@H](CO)[C@H](c3ccc(C#Cc4ccccc4)cc3)[C@@H]2C1` [Compound 54, (8R,9R,10S)-N-(4-fluorophenyl)-10-(hydroxymethyl)-9-[4-(2-phenylethynyl)phenyl]-1,6-diazabicyclo[6.2.0] decane-6-carboxamide] showed an EC50 of 156 nM.

Staying with this assay, now noted: Plasmodium falciparum, DD2, 72 h, P. falciparum Dd2, 72 h incubation.
Take `O=C(Nc1ccncc1)N1CCCCN2[C@H](CO)[C@H](c3ccc(C#Cc4ccccc4)cc3)[C@@H]2C1` [Compound 50, (8R,9R,10S)-10-(hydroxymethyl)-9-[4-(2-phenylethynyl)phenyl]-N-(pyridin-4-yl)-1,6-diazabicyclo[6.2.0] decane-6-carboxamide]: the EC50 was 1230 nM.

Molecule `COc1ccc(NC(=O)N2CCCCN3[C@H](CO)[C@H](c4ccc(C#Cc5ccc(F)cc5)cc4)[C@@H]3C2)cc1` [Compound 51, (8R,9R,10S)-9-{4-[2-(4-fluorophenyl)ethynyl]phenyl}-10-(hydroxymethyl)-N-(4-methoxyphenyl)-1,6-diazabicyclo[6.2.0] decane-6-carboxamide] displayed an EC50 of 11 nM.

In turn, `COc1ccc(NC(=O)N2CCCCN3[C@@H](CO)[C@H](c4ccc(C#Cc5ccccc5)cc4)[C@@H]3C2)cc1` [Compound 52, (8R,9R,10R)-10-(hydroxymethyl)-N-(4-methoxyphenyl)-9-[4-(2-phenylethynyl)phenyl]-1,6-diazabicyclo[6.2.0] decane-6-carboxamide] yielded an EC50 of 17 nM.

Turning to `COc1ccc(NC(=O)N2CCCCN3[C@H](C(=O)O)[C@H](c4ccc(C#Cc5ccccc5)cc4)[C@@H]3C2)cc1` [Compound 53, (8R,9R,10S)-6-[(4-methoxyphenyl)carbamoyl]-9-[4-(2-phenylethynyl)phenyl]-1,6-diazabicyclo[6.2.0] decane-10-carboxylic acid], the EC50 is 2770 nM.

As for `COc1ccc(NC(=O)N2CCCCN3[C@H](CN4CCOCC4)[C@H](c4ccc(C#Cc5ccccc5)cc4)[C@@H]3C2)cc1` [Compound 55, (8R,9S,10S)-N-(4-methoxyphenyl)-10-(morpholin-4-ylmethyl)-9-[4-(2-phenylethynyl)phenyl]-1,6-diazabicyclo[6.2.0] decane-6-carboxamide], the EC50 came to 5 nM.

Turning to `COc1cccc(NC(=O)N2CCCCN3[C@H](CO)[C@H](c4ccc(C#Cc5ccccc5)cc4)[C@@H]3C2)c1` [Compound 56], the EC50 was determined as 80 nM.

In the case of `COc1ccc(NC(=O)N2CCCCN3[C@H](CN)[C@H](c4ccc(C#Cc5ccccn5)cc4)[C@@H]3C2)cc1` [Compound 57, (8R,9S,10S)-10-(aminomethyl)-N-(4-methoxyphenyl)-9-{4-[2-(pyridin-2-yl)ethynyl]phenyl}-1,6-diazabicyclo[6.2.0] decane-6-carboxamide], a half-maximal response (EC50) required 98 nM.

Molecule `COc1ccc(NC(=O)N2CCCCN3[C@H](CNC(C)=O)[C@H](c4ccc(C#Cc5ccccc5)cc4)[C@@H]3C2)cc1` [Compound 58, (8R,9S,10S)-10-(acetamidomethyl)-N-(4-methoxyphenyl)-9-[4-(2-phenylethynyl)phenyl]-1,6-diazabicyclo[6.2.0] decane-6-carboxamide] registered an EC50 of 6 nM.

With `O=C(Nc1cccnc1)N1CCCCN2[C@H](CO)[C@H](c3ccc(C#Cc4ccccc4)cc3)[C@@H]2C1` [Compound 59, (8R,9R,10S)-10-(hydroxymethyl)-9-[4-(2-phenylethynyl)phenyl]-N-(pyridin-3-yl)-1,6-diazabicyclo[6.2.0] decane-6-carboxamide], the EC50 is 2700 nM.

As for `COc1ccc(NC(=O)N2CCCCN3[C@H](CO)[C@H](c4ccc(C#Cc5cccnc5)cc4)[C@@H]3C2)cc1` [Compound 60, (8R,9R,10S)-10-(hydroxymethyl)-N-(4-methoxyphenyl)-9-{4-[2-(pyridin-3-yl)ethynyl]phenyl}-1,6-diazabicyclo[6.2.0] decane-6-carboxamide], the EC50 worked out at 61 nM.

`CNC[C@@H]1[C@H](c2ccc(C#Cc3ccccc3)cc2)[C@@H]2CN(C(=O)Nc3ccc(OC)cc3)CCCCN12` [Compound 61, (8R,9S,10S)-N-(4-methoxyphenyl)-10-[(methylamino)methyl]-9-[4-(2-phenylethynyl)phenyl]-1,6-diazabicyclo[6.2.0] decane-6-carboxamide] registered an EC50 of 47 nM.

In the case of `COc1ccc(N(C)C(=O)N2CCCCN3[C@H](CO)[C@H](c4ccc(C#Cc5ccccc5)cc4)[C@@H]3C2)cc1` [Compound 62, (8R,9R,10S)-10-(hydroxymethyl)-N-(4-methoxyphenyl)-N-methyl-9-[4-(2-phenylethynyl)phenyl]-1,6-diazabicyclo[6.2.0] decane-6-carboxamide], the EC50 turned out to be 4430 nM.

In turn, `COc1ccc(CN2CCCCN3[C@H](CO)[C@H](c4ccc(C#Cc5ccccc5)cc4)[C@@H]3C2)cc1` [Compound 63, [(8R,9R,10S)-6-[(4-methoxyphenyl)methyl]-9-[4-(2-phenylethynyl)phenyl]-1,6-diazabicyclo[6.2.0]decan-10-yl]methanol] returned a half-maximal effective concentration (EC50) of 1230 nM.

Consider `COc1ccc(NC(=O)N2CCCCN3[C@H](CO)[C@H](c4ccc(-c5cccnc5)cc4)[C@@H]3C2)cc1` [Compound 64, (8R,9R,10S)-10-(hydroxymethyl)-N-(4-methoxyphenyl)-9-[4-(pyridin-3-yl)phenyl]-1,6-diazabicyclo[6.2.0] decane-6-carboxamide], for which the EC50 turned out to be 1010 nM.

In the case of `COc1ccc(NC(=O)N2CCCCN3[C@H](CNC(C)=O)[C@H](c4ccc(C#Cc5ccccn5)cc4)[C@@H]3C2)cc1` [Compound 65, (8R,9S,10S)-10-(acetamidomethyl)-N-(4-methoxyphenyl)-9-{4-[2-(pyridin-2-yl)ethynyl]phenyl}-1,6-diazabicyclo[6.2.0] decane-6-carboxamide], the EC50 was found to be 110 nM.

With `COc1ccc(NC(=O)N2CCCCN3[C@H](CO)[C@H](c4ccc(-c5ccn(-c6ccccc6)c5)cc4)[C@@H]3C2)cc1` [Compound 66, (8R,9R,10S)-10-(hydroxymethyl)-N-(4-methoxyphenyl)-9-[4-(1-phenyl-1H-pyrrol-3-yl)phenyl]-1,6-diazabicyclo[6.2.0] decane-6-carboxamide], a half-maximal response (EC50) required 1310 nM.

With `COc1ccc(NC(=O)N2CCCCN3[C@H](CO)[C@H](c4ccc(-c5cccc(F)c5)cc4)[C@@H]3C2)cc1` [Compound 67, (8R,9R,10S)-9-[4-(3-fluorophenyl)phenyl]-10-(hydroxymethyl)-N-(4-methoxyphenyl)-1,6-diazabicyclo[6.2.0] decane-6-carboxamide], the EC50 came to 19500 nM.

As to `COc1ccc(NC(=O)N2CCCCN3[C@H](CO)[C@H](c4ccc(-c5ccncc5)cc4)[C@@H]3C2)cc1` [Compound 69, (8R,9R,10S)-10-(hydroxymethyl)-N-(4-methoxyphenyl)-9-[4-(pyridin-4-yl)phenyl]-1,6-diazabicyclo[6.2.0] decane-6-carboxamide], a half-maximal effect (EC50) was put at 19500 nM.

`COc1ccc(NC(=O)N2CCCCN3C[C@H](c4ccc(C#Cc5ccccc5)cc4)[C@@H]3C2)cc1` [Compound 70, (8R,9S)-N-(4-methoxyphenyl)-9-[4-(2-phenylethynyl)phenyl]-1,6-diazabicyclo[6.2.0] decane-6-carboxamide] showed an EC50 of 13 nM.

In turn, `COc1ccc(NC(=O)N2CCCCN3[C@H](CO)[C@H](c4ccc(C#Cc5ccc(F)c(F)c5)cc4)[C@@H]3C2)cc1` [Compound 71, (8R,9R,10S)-9-{4-[2-(3,4-difluorophenyl)ethynyl]phenyl}-10-(hydroxymethyl)-N-(4-methoxyphenyl)-1,6-diazabicyclo[6.2.0] decane-6-carboxamide] showed an EC50 of 34 nM.
